Measured values taken from ChEMBL document CHEMBL5360544, “Design, synthesis, and biological evaluation of diaryl heterocyclic derivatives targeting tubulin polymerization with potent anticancer activities” (Eur J Med Chem, 2023).
One block for each molecule: values may come before it. Active and inactive are the calls of the source. The rule behind the calls is not given here.

Columns and labels:
HCT-116 [1] = experiment: Antiproliferative activity against human HCT-116 cells incubated for 48 hrs by CCK-8 assay; type: functional, cell-based; settings: HCT-116, 48 h
HepG2 = experiment: Antiproliferative activity against human HepG2 cells incubated for 48 hrs by CCK-8 assay; type: functional, cell-based; settings: HepG2, 48 h
SW480 = experiment: Antiproliferative activity against human SW480 cells incubated for 48 hrs by CCK-8 assay; type: functional, cell-based; settings: SW480, 48 h
HeLa = experiment: Antiproliferative activity against human HeLa cells incubated for 48 hrs by CCK-8 assay; type: functional, cell-based
MDA-MB-231 = experiment: Antiproliferative activity against human MDA-MB-231 cells incubated for 48 hrs by CCK-8 assay; type: functional, cell-based; settings: MDA-MB-231, 48 h
[2] = Antiproliferative activity against human HEK293T cells incubated for 48 hrs by CCK-8 assay; type: toxicity, cell-based, HEK-293T
[3] = Metabolic stability in human liver microsomes assessed as half life preincubated for 2 hrs followed by NADPH regenerating system addition and measured upto 4 hrs by LC-MS method; type: ADME, Microsome; settings: time < 6 hrs
[4] = Metabolic stability in rat liver microsomes assessed as half life preincubated for 2 hrs followed by NADPH regenerating system addition and measured upto 4 hrs by LC-MS method; type: ADME, Microsome; settings: time < 6 hrs
HCT-116 [5] = experiment: Antitumor activity against human HCT-116 cells xenografted in nude mouse assessed as reduction in tumor volume at 50 mg/kg, po administered for 20 days and measured every 2 days; type: functional; design: scale not given: the % may be the effect or the level left; settings: time 20 day
HCT-116 [6] = experiment: Antitumor activity against human HCT-116 cells xenografted in nude mouse assessed as reduction in tumor weight at 50 mg/kg, po administered for 20 days and measured every 2 days; type: functional; design: scale not given: the % may be the effect or the level left; settings: time 20 day
[7] = Toxicity in mouse xenografted with human HCT-116 cells assessed as reduction in body weight at 50 mg/kg, po administered for 20 days and measured every 2 days; type: organism-based; settings: in vivo, 480 h, time 20 day
[8] = Toxicity in mouse xenografted with human HCT-116 cells assessed as reduction in liver damage at 50 mg/kg, po administered for 20 days and measured every 2 days by H and E staining based method; type: organism-based; settings: in vivo, 480 h, time 20 day
[9] = Toxicity in mouse xenografted with human HCT-116 cells assessed as reduction in kidney damage at 50 mg/kg, po administered for 20 days and measured every 2 days by H and E staining based method; type: organism-based; settings: in vivo, 480 h, time 20 day
HCT-116 [10] = experiment: Inhibition of colony formation in human HCT-116 cells incubated with compound for 24 hrs followed by media replacement and measured after 10 days by crystal violet staining based assay; type: functional, cell-based; settings: dose 0.5-2 µM
HCT-116 [11] = experiment: Inhibition of colony formation in human HCT-116 cells at 2 uM incubated with compound for 24 hrs followed by media replacement and measured after 10 days by crystal violet staining based assay; type: functional
Tubulin = Tubulin (Sus scrofa, UniProt P02554+P02550); experiment: Inhibition of pig brain tubulin polymerization incubated for […] by spectrophotometric method; type: tissue-based
HCT-116 [12] = experiment: Induction of cell cycle arrest in human HCT-116 cells assessed as increase in G2/M phase cells incubated for 48 hrs by PI staining based flow cytometry analysis; type: functional; settings: dose 0.5-2 µM
HCT-116 [13] = experiment: Induction of apoptosis in human HCT-116 cells assessed as viable cells at 0.125 uM incubated for 24 hrs by Annexin V and PI staining based flow cytometry analysis (reference value: 99.63%); type: functional; settings: read-out: Activity
HCT-116 [14] = experiment: Induction of apoptosis in human HCT-116 cells assessed as early apoptotic cells at 0.125 uM incubated for 24 hrs by Annexin V and PI staining based flow cytometry analysis (reference value: 0.26%); type: functional
HCT-116 [15] = experiment: Induction of apoptosis in human HCT-116 cells assessed as late apoptotic cells at 0.125 uM incubated for 24 hrs by Annexin V and PI staining based flow cytometry analysis (reference value: 0.07%); type: functional
HCT-116 [16] = experiment: Induction of apoptosis in human HCT-116 cells assessed as necrotic cells at 0.125 uM incubated for 24 hrs by Annexin V and PI staining based flow cytometry analysis (reference value: 0.04%); type: functional
HCT-116 [17] = experiment: Induction of apoptosis in human HCT-116 cells assessed as viable cells at 0.5 uM incubated for 24 hrs by Annexin V and PI staining based flow cytometry analysis (reference value: 99.63%); type: functional; settings: read-out: Activity
HCT-116 [18] = experiment: Induction of apoptosis in human HCT-116 cells assessed as early apoptotic cells at 0.5 uM incubated for 24 hrs by Annexin V and PI staining based flow cytometry analysis (reference value: 0.26%); type: functional
HCT-116 [19] = experiment: Induction of apoptosis in human HCT-116 cells assessed as late apoptotic cells at 0.5 uM incubated for 24 hrs by Annexin V and PI staining based flow cytometry analysis (reference value: 0.07%); type: functional
HCT-116 [20] = experiment: Induction of apoptosis in human HCT-116 cells assessed as necrotic cells at 0.5 uM incubated for 24 hrs by Annexin V and PI staining based flow cytometry analysis (reference value: 0.04%); type: functional
HCT-116 [21] = experiment: Induction of apoptosis in human HCT-116 cells assessed as viable cells at 2 uM incubated for 24 hrs by Annexin V and PI staining based flow cytometry analysis (reference value: 99.63%); type: functional; settings: read-out: Activity
HCT-116 [22] = experiment: Induction of apoptosis in human HCT-116 cells assessed as early apoptotic cells at 2 uM incubated for 24 hrs by Annexin V and PI staining based flow cytometry analysis (reference value: 0.26%); type: functional
HCT-116 [23] = experiment: Induction of apoptosis in human HCT-116 cells assessed as late apoptotic cells at 2 uM incubated for 24 hrs by Annexin V and PI staining based flow cytometry analysis (reference value: 0.07%); type: functional
HCT-116 [24] = experiment: Induction of apoptosis in human HCT-116 cells assessed as necrotic cells at 2 uM incubated for 24 hrs by Annexin V and PI staining based flow cytometry analysis (reference value: 0.04%); type: functional
Tubulin (Homo sapiens) [25] = molecular target: T1, Tubulin (Homo sapiens) (UniProt P68371+Q9H4B7+P0DPH7+P68366+Q13509+Q71U36+P04350+Q3ZCM7+P07437+P68363+Q9BQE3+Q6PEY2+Q13885+Q9BVA1+Q9BUF5); experiment: Induction of microtubule depolymerization in human HCT-116 cells assessed as appearance of short microtubules at 40 nM by immunofluorescent assay; type: cell-based
Tubulin (Homo sapiens) [26] = molecular target: T1, Tubulin (Homo sapiens); experiment: Induction of microtubule depolymerization in human HCT-116 cells assessed as appearance of short microtubules at 160 nM by immunofluorescent assay; type: cell-based
Tubulin (Homo sapiens) [27] = molecular target: T1, Tubulin (Homo sapiens); experiment: Induction of microtubule depolymerization in human HCT-116 cells assessed as appearance of microtubules wrapped around nucleus at 40 nM by immunofluorescent assay; type: cell-based
Tubulin (Homo sapiens) [28] = molecular target: T1, Tubulin (Homo sapiens); experiment: Induction of microtubule depolymerization in human HCT-116 cells assessed as appearance of microtubules wrapped around nucleus at 160 nM by immunofluorescent assay; type: cell-based
HCT-116 [29] = experiment: Antitumor activity against human HCT-116 cells xenografted in nude mouse assessed as reduction in tumor volume at 100 mg/kg, po administered for 20 days and measured every 2 days; type: functional, organism-based; settings: time 20.0 day
HCT-116 [30] = experiment: Antitumor activity against human HCT-116 cells xenografted in nude mouse assessed as reduction in tumor weight at 100 mg/kg, po administered for 20 days and measured every 2 days; type: functional, organism-based; settings: time 20.0 day
[31] = Toxicity in mouse xenografted with human HCT-116 cells assessed as reduction in body weight at 50 to 100 mg/kg, po administered for 20 days and measured every 2 days; type: organism-based; settings: in vivo, 480 h, dose 50-100 mg/kg, time 20 day
[32] = Toxicity in mouse xenografted with human HCT-116 cells assessed as reduction in liver damage at 50 to 100 mg/kg, po administered for 20 days and measured every 2 days by H and E staining based method; type: organism-based; settings: in vivo, 480 h, dose 50-100 mg/kg, time 20 day
[33] = Toxicity in mouse xenografted with human HCT-116 cells assessed as reduction in kidney damage at 50 to 100 mg/kg, po administered for 20 days and measured every 2 days by H and E staining based method; type: organism-based; settings: in vivo, 480 h, dose 50-100 mg/kg, time 20 day

SMILES: COc1ccc(/C=C\c2cc(OC)c(OC)c(OC)c2)cc1O [COMBRETASTATIN A4]
- IC50 (HCT-116 [1]): 2320 nM
- IC50 (HepG2): 1360 nM
- IC50 (SW480): 40000 nM
- IC50 (HeLa): 630 nM
- IC50 (MDA-MB-231): 2130 nM
- IC50 at 48 h [2]: > 80000 nM
- half-life [3]: 9.5 min
- half-life [4]: 2.3 min
- Activity (HCT-116 [5]): 31.4%
- Activity (HCT-116 [6]): 28.8%
- Activity [7]: Non-Toxic
- Activity [8]: Non-Toxic
- Activity [9]: Non-Toxic

- IC50 (HCT-116 [1]): 2650 nM
- IC50 (HepG2): 1540 nM
- IC50 (SW480): 37500 nM
- IC50 (HeLa): 24600 nM
- IC50 (MDA-MB-231): 11400 nM
- IC50 (Tubulin): 8400 nM
- Activity (Tubulin (Homo sapiens) [25]): Active
- Activity (Tubulin (Homo sapiens) [26]): Active
- Activity (Tubulin (Homo sapiens) [27]): Active
- Activity (Tubulin (Homo sapiens) [28]): Active
- half-life [3]: 106 min
- half-life [4]: 6.9 min
SMILES: COc1cc(-c2ccnn2-c2ccc(N)cc2)cc(OC)c1OC
- IC50 at 48 h [2]: > 80000 nM
- inhibition (HCT-116 [10]): Dose-Dependent Effect
- inhibition at 2 µM (HCT-116 [11]): 100%
- Activity (HCT-116 [12]): Dose-Dependent Effect
- viability at 0.125 µM (HCT-116 [13]): 2.2%
- Activity (HCT-116 [14]): 46.19%
- Activity (HCT-116 [15]): 49.45%
- Activity (HCT-116 [16]): 2.17%
- viability at 0.5 µM (HCT-116 [17]): 4.92%
- Activity (HCT-116 [18]): 61.42%
- Activity (HCT-116 [19]): 28.79%
- Activity (HCT-116 [20]): 4.87%
- viability at 2 µM (HCT-116 [21]): 3.22%
- Activity (HCT-116 [22]): 75.68%
- Activity (HCT-116 [23]): 19.38%
- Activity (HCT-116 [24]): 1.72%
- Activity (HCT-116 [5]): 44.1%
- Activity (HCT-116 [6]): 27%
- Activity (HCT-116 [29]): inactive
- Activity (HCT-116 [30]): inactive
- Activity [31]: Non-Toxic
- Activity [32]: Non-Toxic
- Activity [33]: Non-Toxic
